Measurements reported in ChEMBL document CHEMBL6074718, “Discovery and biological evaluation of potent 2-trifluoromethyl acrylamide warhead-containing inhibitors of protein disulfide isomerase” (Eur J Med Chem, 2025).
Active and inactive are the calls of the source. The calls are words filed in the database; no cut-off is given here.

Tests used:
[1] = target: T1, Protein disulfide-isomerase (Homo sapiens, UniProt P07237); experiment: Inhibition of recombinant PDI (unknown origin) preincubated for 1 hrs followed by bovine insulin addition and measured after 80 mins by absorbance based reductase assay
Target sequence in this assay (P07237 whole entry): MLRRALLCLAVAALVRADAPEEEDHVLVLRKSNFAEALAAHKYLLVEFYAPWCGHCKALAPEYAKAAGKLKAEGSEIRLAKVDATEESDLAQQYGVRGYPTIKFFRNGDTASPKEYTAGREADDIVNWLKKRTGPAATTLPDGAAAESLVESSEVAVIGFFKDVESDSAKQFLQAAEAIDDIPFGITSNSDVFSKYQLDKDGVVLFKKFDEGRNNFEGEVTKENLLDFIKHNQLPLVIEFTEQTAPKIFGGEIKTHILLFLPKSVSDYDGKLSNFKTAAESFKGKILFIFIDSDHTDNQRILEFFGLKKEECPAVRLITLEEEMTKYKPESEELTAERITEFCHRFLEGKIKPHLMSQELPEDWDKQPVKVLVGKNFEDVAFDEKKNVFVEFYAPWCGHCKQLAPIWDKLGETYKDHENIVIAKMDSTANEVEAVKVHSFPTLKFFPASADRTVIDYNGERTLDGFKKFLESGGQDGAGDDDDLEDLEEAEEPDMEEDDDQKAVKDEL

[2] = target: T1, Protein disulfide-isomerase; experiment: Inhibition of recombinant PDI (unknown origin) at 0.2 uM preincubated for 1 hrs and measured after 10 fold dilution by absorbance based analysis
Target sequence in this assay (P07237 18-508 limits assumed): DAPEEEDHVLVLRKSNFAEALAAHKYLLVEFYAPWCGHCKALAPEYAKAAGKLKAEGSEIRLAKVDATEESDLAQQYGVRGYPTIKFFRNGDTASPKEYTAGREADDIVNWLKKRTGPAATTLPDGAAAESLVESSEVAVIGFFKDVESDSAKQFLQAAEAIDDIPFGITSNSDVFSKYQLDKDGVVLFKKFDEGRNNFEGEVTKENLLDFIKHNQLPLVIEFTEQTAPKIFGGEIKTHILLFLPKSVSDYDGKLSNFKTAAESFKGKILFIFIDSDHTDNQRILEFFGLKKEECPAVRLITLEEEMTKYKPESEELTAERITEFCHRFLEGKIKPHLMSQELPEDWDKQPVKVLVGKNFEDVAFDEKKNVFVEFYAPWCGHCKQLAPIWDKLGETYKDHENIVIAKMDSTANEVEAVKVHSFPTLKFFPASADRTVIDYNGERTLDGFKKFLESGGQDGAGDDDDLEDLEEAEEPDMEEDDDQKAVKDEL

[3] = target: T2, Protein disulfide-isomerase A3 (Homo sapiens, UniProt P30101); experiment: Inhibition of recombinant PDIA3 (unknown origin) preincubated for 1 hrs followed by bovine insulin addition and measured after 80 mins by absorbance based reductase assay
T2 sequence (P30101 whole entry): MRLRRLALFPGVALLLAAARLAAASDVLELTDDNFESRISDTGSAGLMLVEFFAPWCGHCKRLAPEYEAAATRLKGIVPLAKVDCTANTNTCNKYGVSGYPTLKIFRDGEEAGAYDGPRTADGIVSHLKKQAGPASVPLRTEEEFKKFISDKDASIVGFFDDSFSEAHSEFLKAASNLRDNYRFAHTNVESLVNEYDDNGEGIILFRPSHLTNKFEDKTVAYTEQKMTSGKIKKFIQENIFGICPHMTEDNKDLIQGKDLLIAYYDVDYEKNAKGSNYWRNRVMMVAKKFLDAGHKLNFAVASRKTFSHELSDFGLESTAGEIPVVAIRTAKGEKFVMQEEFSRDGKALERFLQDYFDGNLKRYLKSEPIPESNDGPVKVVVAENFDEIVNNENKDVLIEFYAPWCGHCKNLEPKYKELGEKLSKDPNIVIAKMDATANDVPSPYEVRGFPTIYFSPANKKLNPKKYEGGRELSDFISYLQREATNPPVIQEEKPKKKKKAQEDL

[4] = target: T3, Protein disulfide-isomerase A6 (Homo sapiens, UniProt Q15084); experiment: Inhibition of recombinant PDIA6 (unknown origin) preincubated for 1 hrs followed by bovine insulin addition and measured after 80 mins by absorbance based reductase assay
T3 sequence (Q15084 whole entry): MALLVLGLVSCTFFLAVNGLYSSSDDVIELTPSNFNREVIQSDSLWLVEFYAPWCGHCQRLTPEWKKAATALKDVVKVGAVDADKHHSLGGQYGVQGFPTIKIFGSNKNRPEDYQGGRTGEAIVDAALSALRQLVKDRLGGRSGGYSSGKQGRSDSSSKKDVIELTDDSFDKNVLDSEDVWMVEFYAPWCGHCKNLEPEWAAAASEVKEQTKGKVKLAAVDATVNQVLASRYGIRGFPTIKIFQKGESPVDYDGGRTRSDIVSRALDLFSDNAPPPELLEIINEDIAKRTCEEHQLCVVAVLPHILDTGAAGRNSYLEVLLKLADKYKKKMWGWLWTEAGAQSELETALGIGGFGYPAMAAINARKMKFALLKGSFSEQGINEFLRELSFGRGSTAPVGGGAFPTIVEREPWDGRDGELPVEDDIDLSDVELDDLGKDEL

[5] = Antiplatelet aggregation activity in human Platelet assessed as inhibition of U46619- induced aggregation preincubated for 3 mins followed by U46619 addition by turbidimetric aggregometry
[6] = Antiplatelet aggregation activity in human Platelet assessed as inhibition of collagen- induced aggregation preincubated for 3 mins followed by collagen addition by turbidimetric aggregometry
[7] = Antiplatelet aggregation activity in human Platelet assessed as inhibition of thrombin- induced aggregation preincubated for 3 mins followed by thrombin addition by turbidimetric aggregometry
[8] = target: T1, Protein disulfide-isomerase; experiment: Inhibition of PDI in human Platelet assessed as reduction in […] activation by measuring decrease in PAC-1 binding at 5 uM preincubated for 3 mins followed by U46619 addition and measured after 5 mins by flow cytometric analysis; format: cell-based; settings: time 8.0 min
Target sequence in this assay (P07237 18-508 limits assumed): as the sequence (P07237 18-508 limits assumed) above

[9] = Antiplatelet aggregation activity in human Platelet assessed as reduction in U46619-induced secretion of p-selectin at 5 uM preincubated for 3 mins followed by U46619 addition and measured after 5 mins by flow cytometric analysis relative to control; format: functional; design: scale not given: the % may be the effect or the level left; settings: time 8 min
Blood [10] = experiment: Antithrombotic activity in citrated-human whole blood assessed as reduction in coverage area of thrombi on collagen-coated chamber at 5 uM incubated for 10 mins in presence of DiOC6(3) by fluorescence microscopic analysis relative to control; format: functional; design: scale not given: the % may be the effect or the level left
HUVEC = experiment: Cytotoxicity against HUVEC cells assessed as reduction in cell viability at 5 to 40 uM incubated for 24 hrs by MTT assay; format: toxicity, cell-based; settings: human, dose 5-40 µM
A549 = experiment: Antiproliferative activity against human A549 cells assessed as reduction in cell viability at 5 to 40 uM incubated for 24 hrs by MTT assay; format: functional, cell-based; settings: dose 5-40 µM
MDA-MB-231 = experiment: Antiproliferative activity against human MDA-MB-231 cells assessed as reduction in cell viability at 5 to 40 uM incubated for 24 hrs by MTT assay; format: functional, cell-based; settings: dose 5-40 µM
HepG2 = experiment: Antiproliferative activity against human HepG2 cells assessed as reduction in cell viability at 5 to 40 uM incubated for 24 hrs by MTT assay; format: functional, cell-based; settings: dose 5-40 µM
Platelet [11] = experiment: Antiplatelet aggregation activity in human Platelet assessed as inhibition of U46619- induced aggregation at 50 to 200 uM preincubated for 3 mins followed by U46619 addition by turbidimetric aggregometry; format: functional, cell-based; settings: dose 50-200 µM
Platelet [12] = experiment: Antiplatelet aggregation activity in human Platelet assessed as inhibition of thrombin- induced aggregation at 50 to 200 uM preincubated for 3 mins followed by thrombin addition by turbidimetric aggregometry; format: functional, cell-based; settings: dose 50-200 µM
Blood [13] = experiment: Antithrombotic activity in citrated-human whole blood assessed as reduction in coverage area of thrombi on collagen-coated chamber at 100 uM incubated for 10 mins in presence of DiOC6(3) by fluorescence microscopic analysis relative to control; format: functional; design: scale not given: the % may be the effect or the level left
Blood [14] = experiment: Antithrombotic activity in citrated-human whole blood assessed as reduction in coverage area of thrombi on collagen-coated chamber at 200 uM incubated for 10 mins in presence of DiOC6(3) by fluorescence microscopic analysis relative to control; format: functional; design: scale not given: the % may be the effect or the level left
[15] = target: T1, Protein disulfide-isomerase; experiment: Irreversible inhibition of recombinant PDI (unknown origin) at 4 uM preincubated for 1 hrs and measured after 10 fold dilution by absorbance based analysis
Target sequence in this assay (P07237 18-508 limits assumed): as the sequence (P07237 18-508 limits assumed) above

Row | IC50 [1] | SMILES | other results
1 | > 40000 nM | COC(=O)c1cc(OC)c(OC)cc1NC(=O)C12CC1C2 (stereo not given) | 
2 | 1210 nM | C=C(C(=O)Nc1ccc(CN2CCOCC2)cc1)C(F)(F)F | 
3 | 3000 nM | C=C(C(=O)Nc1ccc(OC)c(OC)c1)C(F)(F)F | 
4 | > 40000 nM | COC(=O)/C=C/C(=O)Nc1cc(OC)c(OC)cc1C(=O)OC | 
5 | > 40000 nM | COC(=O)c1cc(OC)c(OC)cc1NC(=O)C1CO1 (stereo not given) | 
6 | 1230 nM | C=C(C(=O)Nc1ccc(OCCC)c(OC)c1)C(F)(F)F | 
7 | 480 nM | C=C(C(=O)Nc1ccc(C(=O)c2ccccc2)cc1)C(F)(F)F | inhibition [2]: Not active; Compound Exhibited Reversible Binding Mode With Pdi; IC50 [3]: 1520 nM; IC50 [4]: 7100 nM; IC50 [5]: 3500 nM; IC50 [6]: 13000 nM; IC50 [7]: 25500 nM; inhibition [8]: Active; Activity [9]: 52%; Activity (Blood [10]): 36%; Activity (HUVEC): Non-toxic; Activity (A549): inactive; Activity (MDA-MB-231): inactive; Activity (HepG2): inactive
8 | 560 nM | C=C(C(=O)Nc1ccc(Cc2ccccc2)cc1)C(F)(F)F | 
9 | > 40000 nM | C=C(F)C(=O)Nc1cc(OC)c(OC)cc1C(=O)OC | 
10 | 2910 nM | C=C(C(=O)Nc1ccc2c(c1)OCO2)C(F)(F)F | 
11 |  | CC(=O)Oc1ccccc1C(=O)O [ASPIRIN] | IC50 [6]: 74500 nM; Activity (Platelet [11]): inactive; Activity (Platelet [12]): inactive; Activity (Blood [13]): 21%; Activity (Blood [14]): 46%
12 | > 40000 nM | COC(=O)c1cc(OC)c(OC)cc1NC(=O)CCl | 
13 | 580 nM | C=C(C(=O)Nc1cc(OC)c(OC)c(OC)c1)C(F)(F)F | 
14 | 840 nM | C=C(C(=O)Nc1ccc(N(CC)CC)cc1)C(F)(F)F | 
15 | 19100 nM | C=CS(=O)(=O)Nc1cc(OC)c(OC)cc1C(=O)OC | 
16 | 1630 nM | C=C(C(=O)Nc1ccc(-c2ccccc2)cc1)C(F)(F)F | 
17 | 1100 nM | C=CS(=O)(=O)Oc1cc(OC)c(OC)cc1C(=O)OC | 
18 | > 40000 nM | C=CC(=O)Nc1cc(OC)c(OC)cc1C(=O)OC | 
19 | 1600 nM | C#CC(=O)Nc1cc(OC)c(OC)cc1C(=O)OC | 
20 | 870 nM | C=C(C(=O)Nc1ccc(C(C)(C)C)cc1)C(F)(F)F | 
21 | 1620 nM | C=C(C(=O)Nc1ccc(OCC)c(OC)c1)C(F)(F)F | 
22 | 12400 nM | C#CC(=O)N(c1ccc(OC)c(OC)c1)C(C(=O)NCC(=O)OCC)c1cccs1 (stereo not given) | inhibition [15]: Active; IC50 [3]: 28100 nM; IC50 [4]: > 40000 nM
23 | 810 nM | C=C(C(=O)Nc1ccc(OCc2ccccc2)c(OC)c1)C(F)(F)F | 
24 | 680 nM | C=C(C(=O)Nc1ccc(C(F)(F)F)cc1)C(F)(F)F | 
25 | 2200 nM | C=C(C(=O)Nc1cc(OC)c(OC)cc1C(=O)OC)C(F)(F)F | 
